One data set addresses JAK3-JH1JH2 (Homo sapiens (Human), UniProt P52333). Description: Enzymatic inhibition assay (HTMS), JAK3. The conditions noted are these: 150 μM ATP; read-out: JAK3_I_JH1JH2 IC50. It counts as biochemical. The source says: (§1) JAK1-JH1JH2 (574-1154 with a His-GST Tag and a C-terminal tev (ENLYFQ-G) cleavage site), JAK3-JH1JH2 (512-1124 with a GST Tag and a C-terminal tev (ENLYFQ-G) cleavage site), and Tyk2-JH1JH2 (8H_tev_580-1182-C936A-C1142A with a C-terminal tev (ENLYFQ-G) cleavage site) were purified internally. […] LC/MS grade water and acetonitrile (ACN), were purchased from HoneyWell, Burdick & Jackson (Muskegon, Mich., USA). Dimethylsulfoxide 99.8% (DMSO) and trifluoroacetic acid 99.5% (TFA) were purchased from EMD Chemical (Gibbstown, N.J., USA). Adenosine triphosphate (ATP), 4-morpholinepropanesulfonic acid (MOPS), magnesium chloride (MgCl2), ethylenediaminetetraacetic acid (EDTA), dithiothreitol (DTT), formic acid >95% (FA) and Tween-20 were purchased from Sigma (St Louis, Mo., USA). 384-well polypropylene plates, Cat#781280 were purchased from Greiner (Monroe, N.C.), RapidFire™ cartridge A C4 Column (Agilent Technologies, Santa Clara, Calif.). […]
(§2) 11-point dosing series were made for each compound by serially diluting 1:3 or 1:4 in DMSO, with point 12 being a DMSO control. […] Compound inhibition was assessed by a decrease of the phosphorylated product levels in sample wells compared to the non-inhibited enzyme reaction. […]

Another data set addresses JAK2-JH1JH2 (Homo sapiens (Human), UniProt O60674). Description: Enzymatic inhibition assay (HTMS), JAK2. It counts as biochemical. The conditions noted are these: 30 μM ATP; read-out: JAK2_I_JH1JH2 IC50.
From the text: as §1, §2

A short description of another data set: physchem. The conditions noted are these: thermodynamic from solid.
The target in a further data set is Tyk2-JH1JH2 (Homo sapiens (Human), UniProt P29597, C1142A/C936A). Description: Enzymatic inhibition assay (HTMS), Tyk2. In kind it is biochemical. Conditions: 50 μM ATP; read-out: Tyk2_I_JH1JH2 IC50.
Tyk2-JH1JH2, sequence (P29597 580-1182 C936A/C1142A): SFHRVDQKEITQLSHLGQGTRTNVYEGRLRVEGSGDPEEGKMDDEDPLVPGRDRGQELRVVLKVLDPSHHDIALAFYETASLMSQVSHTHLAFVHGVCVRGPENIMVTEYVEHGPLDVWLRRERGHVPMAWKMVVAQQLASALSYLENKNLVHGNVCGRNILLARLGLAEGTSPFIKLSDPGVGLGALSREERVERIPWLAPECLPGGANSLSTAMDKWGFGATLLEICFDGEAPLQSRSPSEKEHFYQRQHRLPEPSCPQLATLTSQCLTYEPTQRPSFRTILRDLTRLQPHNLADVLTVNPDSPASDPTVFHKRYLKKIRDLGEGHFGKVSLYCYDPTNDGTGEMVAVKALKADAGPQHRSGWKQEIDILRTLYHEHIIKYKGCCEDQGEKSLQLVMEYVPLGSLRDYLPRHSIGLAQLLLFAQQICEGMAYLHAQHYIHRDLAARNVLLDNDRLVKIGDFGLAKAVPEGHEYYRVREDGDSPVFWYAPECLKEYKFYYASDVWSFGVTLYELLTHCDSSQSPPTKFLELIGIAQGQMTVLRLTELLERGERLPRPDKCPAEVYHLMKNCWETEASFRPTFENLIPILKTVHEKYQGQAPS
From the text: as §1, §2

The next data set concerns the target JAK1-JH1JH2 (Homo sapiens (Human), UniProt P23458). Description: Enzymatic inhibition assay (HTMS), JAK1. In kind it is biochemical. The conditions noted are these: 12.5 μM ATP; read-out: JAK1_JH1JH2 IC50.
From the text: as §1, §2

JAK2-JH1JH2, sequence (O60674 532-1132): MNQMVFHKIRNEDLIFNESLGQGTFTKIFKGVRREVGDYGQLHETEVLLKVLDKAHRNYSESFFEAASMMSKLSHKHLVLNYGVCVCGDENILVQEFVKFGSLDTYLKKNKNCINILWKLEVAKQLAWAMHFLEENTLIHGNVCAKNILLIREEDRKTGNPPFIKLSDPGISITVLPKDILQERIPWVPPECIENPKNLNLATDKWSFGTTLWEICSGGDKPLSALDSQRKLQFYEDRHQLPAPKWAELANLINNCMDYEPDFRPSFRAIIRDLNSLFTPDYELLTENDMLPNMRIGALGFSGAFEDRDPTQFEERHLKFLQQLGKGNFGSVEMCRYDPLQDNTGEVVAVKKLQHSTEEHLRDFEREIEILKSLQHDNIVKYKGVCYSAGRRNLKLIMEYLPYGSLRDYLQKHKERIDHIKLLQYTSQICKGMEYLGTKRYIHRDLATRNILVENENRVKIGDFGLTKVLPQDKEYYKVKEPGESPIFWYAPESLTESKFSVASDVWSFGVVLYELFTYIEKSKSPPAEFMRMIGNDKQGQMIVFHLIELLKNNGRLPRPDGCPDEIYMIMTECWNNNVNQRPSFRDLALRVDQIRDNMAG
JAK1-JH1JH2, sequence (P23458 574-1154): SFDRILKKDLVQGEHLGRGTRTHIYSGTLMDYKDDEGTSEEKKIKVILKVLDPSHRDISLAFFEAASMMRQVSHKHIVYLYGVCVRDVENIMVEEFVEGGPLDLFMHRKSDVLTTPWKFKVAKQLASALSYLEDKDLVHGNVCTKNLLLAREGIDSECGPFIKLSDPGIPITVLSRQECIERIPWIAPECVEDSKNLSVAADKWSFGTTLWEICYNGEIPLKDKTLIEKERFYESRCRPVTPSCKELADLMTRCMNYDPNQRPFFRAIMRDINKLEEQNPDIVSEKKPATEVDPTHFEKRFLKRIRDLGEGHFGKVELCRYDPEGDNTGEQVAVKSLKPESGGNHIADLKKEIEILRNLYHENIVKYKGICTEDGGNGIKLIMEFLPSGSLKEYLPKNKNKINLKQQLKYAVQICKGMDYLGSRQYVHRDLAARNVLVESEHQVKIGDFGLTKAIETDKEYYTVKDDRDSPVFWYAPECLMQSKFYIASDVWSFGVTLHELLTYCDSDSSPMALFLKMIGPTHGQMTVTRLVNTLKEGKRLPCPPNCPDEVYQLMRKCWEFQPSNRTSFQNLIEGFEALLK
JAK3-JH1JH2, sequence (P52333 512-1124): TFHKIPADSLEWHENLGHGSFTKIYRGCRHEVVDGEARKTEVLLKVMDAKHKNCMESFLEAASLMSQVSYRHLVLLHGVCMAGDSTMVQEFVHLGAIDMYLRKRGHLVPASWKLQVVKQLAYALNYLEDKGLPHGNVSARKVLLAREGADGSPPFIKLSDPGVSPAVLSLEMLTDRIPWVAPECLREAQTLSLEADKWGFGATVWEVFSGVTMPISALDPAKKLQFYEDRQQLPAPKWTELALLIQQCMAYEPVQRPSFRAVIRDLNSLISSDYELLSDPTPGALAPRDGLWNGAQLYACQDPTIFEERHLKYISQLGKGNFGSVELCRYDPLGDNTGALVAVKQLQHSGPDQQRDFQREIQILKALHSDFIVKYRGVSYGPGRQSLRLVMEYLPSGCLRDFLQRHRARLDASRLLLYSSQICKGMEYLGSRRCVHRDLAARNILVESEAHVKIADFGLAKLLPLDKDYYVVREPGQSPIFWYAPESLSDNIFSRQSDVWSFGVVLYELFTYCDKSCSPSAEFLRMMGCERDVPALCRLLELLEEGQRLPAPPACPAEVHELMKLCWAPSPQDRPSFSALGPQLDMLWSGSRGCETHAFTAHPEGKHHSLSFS

A word on the IC50: it is the midpoint of a concentration-inhibition curve. What is called solubility is the concentration that dissolves in the medium under given conditions. Higher therefore signals much dissolved substance. In the case of `N#CC[C@H]1CC[C@H](n2c(-c3c[nH]cn3)nc3cnc4[nH]ccc4c32)CC1` [Ex. 2, 2-((1r,4r)-4-(2-(1H-Imidazol-4-yl)imidazo[4,5-d]pyrrolo[2,3-b]pyridin-1(6H)-yl)cyclohexyl)acetonitrile], the IC50 on JAK3-JH1JH2 stood at 33.9 nM; on JAK2-JH1JH2 it was 1 nM; at Tyk2-JH1JH2 it was 1.5 nM; at JAK1-JH1JH2, 0.2 nM. Also, the solubility in the data set “physchem” (pH 6.5, fassif) was more than 400 µM; in “physchem” (simulated gastric fluid), more than 400 µM.
